Consider 1 compound from ChEMBL document CHEMBL4811240, “Discovery of N-substituted sulfamoylbenzamide derivatives as novel inhibitors of STAT3 signaling pathway based on Niclosamide” (Eur J Med Chem, 2021).

The subject of one data set is SW480. Description: Antiproliferative activity against human SW480 cells assessed as inhibition of cell viability at 10 uM after 48 hrs by MTT assay relative to control. Type of data set: functional. Background: Tetrazolium assays rely on reduction of a dye to a coloured formazan, in cell work by metabolically active cells.
Data set [1] is described as follows: Toxicity in BALB/c nude mouse xenografted with human MDA-MB-231 cells assessed as effect on body weight at 30 mg/kg, ig administered every two days. It is filed as organism-based. Particulars: in vivo, po. A general note: Xenograft models place foreign cells or tissue in a host animal.
Data set [2] has as its system MDA-MB-231. Briefly: Inhibition of human MDA-MB-231 cells migration after 24 hrs by crystal violet staining based transwell migration assay. It is filed as functional, cell-based. Particulars: dose 0.1-1 µM.
Data set [3] relates to MDA-MB-231. Briefly: Induction of apoptosis in human MDA-MB-231 cells assessed as increase in cleaved caspase 3 expression at 1 to 10 uM incubated for 24 hrs by Western blot analysis. It is filed as functional, cell-based. To be noted: dose 1-10 µM. (In western blotting, separated proteins are transferred to a membrane and probed.)

Structures are written as SMILES. Activity calls are given as the source filed them. The rule behind the calls is not given here.

Usually inhibition stands for the percentage by which the read-out fell short of the control. For the compound `CC(C)(C)OC(=O)c1ccc(NC(=O)c2ccc(Cl)c(S(N)(=O)=O)c2)cc1`, the inhibition at 10 µM in the data set on SW480 came out at 80.9%. Besides, the Activity entry in data set [1] is reported as “Non-Toxic”. Moreover, the inhibition result in the data set on MDA-MB-231 [2] is “Dose-Dependent Effect”. For the same compound, in the data set on MDA-MB-231 [3], the outcome was Active.
